The test concerns 5-HT levels in ventral hippocampus. Kind of test: Microdialysis of brain serotonin (5-HT) levels in ventral hippocampus of rats. Type of test: in vivo, rat. As to conditions: loxapine alone; male Wistar rats. As for the experimental part: Male albino rats of a Wistar-derived strain (285-320 g; Harlan, Zeist, The Netherlands) were used for the experiments. Upon surgery, rats were housed individually in plastic cages (35×35×40 cm), and had free access to food and water. Animals were kept on a 12 h light schedule (light on 7:00 a.m.). The experiments are concordant with the declarations of Helsinki and were approved by the animal care committee of the faculty of mathematics and natural science of the University of Groningen.
Preceding surgery rats were anaesthetised using isoflurane (O2/N2O; 300/300 ml/min). Lidocaine-HCl, 10% (m/v) was used for local anaesthesia.
Rats were allowed to recover for at least 24 h. […]
Twenty-μl microdialysate samples were injected via an autoinjector (CMA/200 refrigerated microsampler, CMA, Sweden) onto a 100×2.0 mm C18 Hypersil 3 μm column (Bester, Amstelveen, the Netherlands) and separated with a mobile phase consisting of 5 g/L di-ammoniumsulfate, 500 mg/L EDTA, 50 mg/L heptane sulphonic acid, 4% methanol v/v, and 30 μl/L of triethylamine, pH 4.65 at a flow of 0.4 ml/min (Shimadzu LC-10 AD). 5-HT was detected amperometrically at a glassy carbon electrode at 500 mV vs Ag/AgCl (Antec Leyden, Leiden, The Netherlands). […]

From patent US20070042014A1, “Combination of a serotonin reuptake inhibitor and loxapine” (H. Lundbeck A/S, priority 2003, published 2007) come the findings set out here.

Consider `CN1CCN(C2=Nc3ccccc3Oc3ccc(Cl)cc32)CC1` [loxapine], for which the “effect on 5-HT levels in ventral hippocampus (microdialysis, % of control level)” value is “no significant effect”.
